What was measured:
Type in all cases: biochemical
CDK2/CyclinA2 = biological target: T1, CDK2/CyclinA2 (Homo sapiens, UniProt P24941); test: CDK2/Cyclin A2 Mobility Shift Assay (Caliper, Table B); conditions: for Ki: Caliper mobility shift, 10xKm, read-out: CDK2/CCNA2 Caliper 10xKm Ki: Average Ki
T1 construct: Wild-type, full length CDK2 in complex with wildtype, full length CyclinA2: Carna Cat #04-103; purchased Carna 04-103
Description: 10 nL of 2000× compound in 100% DMSO is added to a 384-well polypropylene assay plate. 15 μL of 1.3×CDK2/A2 and 1.3× fluorescent substrate (Wild-type, full length CDK2 in complex with wildtype, full length CyclinA2: Carna Cat #04-103 and FL-Peptide 18: PerkinElmer Cat #760362) diluted in kinase buffer (50 mM Hepes, 0.01% Brij-35, 10 mM MgCl2, 1 mM EGTA, 0.05% BSA, and 2 mM DTT) is added to the plates on top of the compound, mixed, and pre-incubated for 30 minutes at room temperature. The fluorescently labeled peptide substrate is phosphorylated by CDK2/A2 upon ATP hydrolysis. Following the incubation, 5 μL of 4×ATP diluted in kinase buffer is added to the plate to initiate the reaction. Following the 30-minute incubation, the reaction is stopped by adding 75 μL of stopping buffer containing 0.5 M EDTA.
The assay plate is then read on a Lab Chip EZ Reader which separates the fluorescently labeled substrate and product peptides through a mobility difference. The phosphorylation of the substrate imparts a negative charge, which allows differences in separation as both are pulled through the microfluidic chip. The ratio of substrate and product values are used to generate percent conversion. These raw percent conversion values are normalized to calculate percent inhibition, which are fit to a four-parameter logistic curve and IC50 values are calculated. IC50 values are converted to Ki through using substrate and Km^app values, and the Cheng-Prusoff equation.

CDK1/CyclinB1 = biological target: T2, CDK1/CyclinB1 (Homo sapiens, UniProt P06493); test: CDK1/CyclinB1 ChEF Assay (Table A); conditions: read-out: CDK1/CCNB1 ChEF Ki: Average Ki;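 also: Ki reported in nM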
T2 construct: Wild-type, full length CDK1 in complex with wildtype, full length CyclinB1: Carna Cat #04-102; purchased Carna 04-102
T2 sequence (P06493 whole entry): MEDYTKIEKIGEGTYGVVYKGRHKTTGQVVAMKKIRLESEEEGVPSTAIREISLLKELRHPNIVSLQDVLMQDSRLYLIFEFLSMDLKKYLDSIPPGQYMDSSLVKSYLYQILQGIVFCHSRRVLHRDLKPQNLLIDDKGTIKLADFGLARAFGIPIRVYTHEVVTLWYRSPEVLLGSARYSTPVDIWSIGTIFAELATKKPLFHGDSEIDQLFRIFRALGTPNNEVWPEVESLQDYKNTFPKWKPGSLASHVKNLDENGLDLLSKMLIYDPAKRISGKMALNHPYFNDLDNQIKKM
T2 sequence (P14635 whole entry partner): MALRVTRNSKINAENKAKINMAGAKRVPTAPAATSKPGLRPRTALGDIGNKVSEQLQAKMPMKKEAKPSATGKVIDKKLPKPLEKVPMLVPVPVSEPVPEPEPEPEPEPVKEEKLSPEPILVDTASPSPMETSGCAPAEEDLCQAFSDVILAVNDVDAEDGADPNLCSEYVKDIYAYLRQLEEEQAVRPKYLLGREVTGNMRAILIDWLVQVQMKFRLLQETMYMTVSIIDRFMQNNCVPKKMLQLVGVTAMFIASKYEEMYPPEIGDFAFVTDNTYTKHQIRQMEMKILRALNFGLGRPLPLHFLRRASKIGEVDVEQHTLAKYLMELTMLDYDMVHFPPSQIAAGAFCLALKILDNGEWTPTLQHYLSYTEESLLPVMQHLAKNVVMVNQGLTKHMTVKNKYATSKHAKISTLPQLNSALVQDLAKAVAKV
Description: 500 nL of 50× compound in 100% DMSO is added to a 384-well low volume, white assay plate. 19.5 μL of 1.3×CDK1/CyclinB1 (Wild-type, full length CDK1 in complex with wildtype, full length CyclinB1: Carna Cat #04-102) diluted in assay buffer (50 mM Hepes, 0.01% Brij-35, 10 mM MgCl2, 0.5 mM EGTA, 1% Glycerol, and 1.2 mM DTT) is added to the plates on top of the compound and pre-incubated for 30 minutes at room temperature. Following the incubation, 5 μL of 5×Sox-chromophore (CSox) labeled peptide substrate (AQT0297, AssayQuant) & ATP diluted in assay buffer is added to the plate to initiate the reaction. The assay is incubated at room temperature for 30 min after initiation. The CSox peptide substrate is phosphorylated by CDK1/B1 upon ATP hydrolysis.
(§1) The fluorescent intensity measurement of the assay plate for all assays described above is read on a microplate reader once the assay is initiated and again at the completion of the assay. Phosphorylation of the CSox-based peptide substrate sensor results in an immediate increase in fluorescence. These raw fluorescence intensity values are normalized to calculate percent inhibition, which are fit to a four-parameter logistic curve and IC50 values are calculated. IC50 values are converted to Ki using substrate, KM^app values, and the Cheng-Prusoff equation.

CDK9/CyclinT1 [1] = biological target: T3, CDK9/CyclinT1 (Homo sapiens, UniProt P50750); test: CDK9/CyclinT1 Mobility Shift Assay (Caliper, Table B); design: Wild-type, full length CDK9 in complex with wildtype, CyclinT1 (1-259): Biortus Cat #BP480/792/691; purchased Biortus BP480/792/691; conditions: read-out: CDK9/Cyclin T1 Caliper Ki: Average Ki
Summary of the method: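 Full-length wild-type CDK9 with CyclinT1 (1-259) and fluorescent peptide substrate, pre-incubated with compound 30 min at room temperature in Hepes/Brij-35/MgCl2/EGTA/BSA/DTT buffer; ATP added, 30 min reaction, EDTA stop. Substrate/product separated by microfluidic mobility shift; percent inhibition fit to four-parameter curve, IC50 converted to Ki by Cheng-Prusoff using Kmapp.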
Target sequence in this assay (P50750 whole entry): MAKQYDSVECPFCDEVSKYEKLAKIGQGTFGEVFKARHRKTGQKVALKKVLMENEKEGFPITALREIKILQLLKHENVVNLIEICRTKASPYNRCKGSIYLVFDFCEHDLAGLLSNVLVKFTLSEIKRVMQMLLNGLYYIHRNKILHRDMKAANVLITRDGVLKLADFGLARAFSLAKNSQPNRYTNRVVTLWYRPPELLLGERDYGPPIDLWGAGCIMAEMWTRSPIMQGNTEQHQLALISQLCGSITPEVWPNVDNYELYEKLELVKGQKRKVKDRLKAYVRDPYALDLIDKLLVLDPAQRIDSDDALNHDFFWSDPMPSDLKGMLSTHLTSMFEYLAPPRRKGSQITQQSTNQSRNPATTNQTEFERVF
Target sequence in this assay (O60563 1-259 partner limits assumed): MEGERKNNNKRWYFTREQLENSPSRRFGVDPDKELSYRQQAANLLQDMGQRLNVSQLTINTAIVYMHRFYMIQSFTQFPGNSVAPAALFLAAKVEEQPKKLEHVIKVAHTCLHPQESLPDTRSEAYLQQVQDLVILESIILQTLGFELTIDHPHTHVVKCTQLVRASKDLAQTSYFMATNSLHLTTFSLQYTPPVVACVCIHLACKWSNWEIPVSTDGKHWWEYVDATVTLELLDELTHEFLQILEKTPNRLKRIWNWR

CDK9/CyclinT1 [2] = biological target: T3, CDK9/CyclinT1; test: CDK9/CyclinT1 ChEF Assay (Table A); design: Wild-type, full length CDK9 in complex with wildtype, full length CyclinT1: Invitrogen Cat #PV4131; purchased Invitrogen PV4131; conditions: 10xKm, read-out: CDK9/CCNT1 ChEF 10xKm Ki: Average Ki
Description: 500 nL of 50× compound in 100% DMSO is added to a 384-well low volume, white assay plate. 19.5 μL of 1.3×CDK9/CyclinT1 (Wild-type, full length CDK9 in complex with wildtype, full length CyclinT1: Invitrogen Cat #PV4131) diluted in assay buffer (50 mM Hepes, 0.01% Brij-35, 10 mM MgCl2, 0.5 mM EGTA, 1% Glycerol, and 1.2 mM DTT) is added to the plates on top of the compound and pre-incubated for 30 minutes at room temperature. Following the incubation, 5 μL of 5×Sox-chromophore (CSox) labeled peptide substrate (AQT0449, AssayQuant) & ATP diluted in assay buffer is added to the plate to initiate the reaction. The assay is incubated at room temperature for 120 min after initiation. The CSox peptide substrate is phosphorylated by CDK9/T1 upon ATP hydrolysis.
as §1
Target sequence in this assay (P50750 whole entry): as the sequence (P50750 whole entry) above
Target sequence in this assay (O60563 whole entry partner): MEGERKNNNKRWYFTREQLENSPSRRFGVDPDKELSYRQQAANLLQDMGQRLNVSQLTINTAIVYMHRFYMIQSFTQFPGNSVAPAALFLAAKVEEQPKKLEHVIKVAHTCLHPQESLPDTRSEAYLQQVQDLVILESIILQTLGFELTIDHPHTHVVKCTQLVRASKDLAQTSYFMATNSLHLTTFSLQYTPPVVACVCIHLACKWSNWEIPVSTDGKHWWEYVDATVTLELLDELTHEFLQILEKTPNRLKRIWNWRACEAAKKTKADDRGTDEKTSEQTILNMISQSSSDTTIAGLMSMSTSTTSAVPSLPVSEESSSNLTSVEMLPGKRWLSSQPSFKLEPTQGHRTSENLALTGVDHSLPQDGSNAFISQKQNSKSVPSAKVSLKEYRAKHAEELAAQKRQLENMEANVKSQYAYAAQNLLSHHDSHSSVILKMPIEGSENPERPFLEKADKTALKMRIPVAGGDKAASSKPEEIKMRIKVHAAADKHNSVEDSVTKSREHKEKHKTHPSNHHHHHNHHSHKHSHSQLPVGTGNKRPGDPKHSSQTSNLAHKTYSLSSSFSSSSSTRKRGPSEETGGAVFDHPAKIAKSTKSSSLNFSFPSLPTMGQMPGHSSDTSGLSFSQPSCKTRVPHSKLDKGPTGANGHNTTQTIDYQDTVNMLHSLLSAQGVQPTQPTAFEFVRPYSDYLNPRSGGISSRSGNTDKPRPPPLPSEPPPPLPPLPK

## CN1CCNC(=O)O[C@@H]2CC[C@@H](C2)c2cc(n[nH]2)Nc2ccc(cc2F)S(=O)(=O)NCC1 [Compound 100, (1^1S, 1^3R,Z)-4^2-fluoro-9-methyl-2^1H-14-oxa-5-thia-3,6,9,12-tetraaza-2(5,3)-pyrazola-4(1,4)-benzena-1(1,3)-cyclopentanacyclotetradecaphan-13-one 5,5-dioxide]
CDK2/CyclinA2
  Ki: 1 to 25 nM
CDK2/CyclinA2; Caliper
  CDK2/CCNA2 Caliper 10xKm Ki: CDK2/A2 Selectivity over CDK1/B1: A (A>10)
  CDK2/CCNA2 Caliper 10xKm Ki: CDK2/A2 Selectivity over CDK9: A (A>10)
CDK1/CyclinB1
  Ki: 25 to 100 nM
CDK9/CyclinT1 [1]
  Ki: ≥ 100 nM
CDK9/CyclinT1 [2]
  Ki: ≥ 100 nM

## CC1(C)CCCNS(=O)(=O)c2ccc(c(F)c2)Nc2cc([nH]n2)[C@H]2CC[C@H](C2)OC(=O)N1 [Compound 101, (1^1S,1^3R,Z)-4^2-fluoro-10,10-dimethyl-2^1H-13-oxa-5-thia-3,6,11-triaza-2(5,3)-pyrazola-4(1,4)-benzena-1(1,3)-cyclopentanacyclotridecaphan-12-one 5,5-dioxide]
CDK2/CyclinA2
  Ki: 1 to 25 nM
CDK2/CyclinA2; Caliper
  CDK2/CCNA2 Caliper 10xKm Ki: CDK2/A2 Selectivity over CDK1/B1: A (A>10)
  CDK2/CCNA2 Caliper 10xKm Ki: CDK2/A2 Selectivity over CDK9: A (A>10)
CDK1/CyclinB1
  Ki: 25 to 100 nM
CDK9/CyclinT1 [1]
  Ki: ≥ 100 nM
CDK9/CyclinT1 [2]
  Ki: 25 to 100 nM

## O=C1NCC=CCNS(=O)(=O)c2ccc(c(F)c2)Nc2cc([nH]n2)[C@H]2CC[C@H](C2)O1 [Compound 102, (1^1S,1^3R,2^4Z)-4^2-fluoro-2^1H-13-oxa-5-thia-3,6,11-triaza-2(5,3)-pyrazola-4(1,4)-benzena-1(1,3)-cyclopentanacyclotridecaphan-8-en-12-one 5,5-dioxide]
CDK2/CyclinA2
  Ki: < 1 nM
CDK2/CyclinA2; Caliper
  CDK2/CCNA2 Caliper 10xKm Ki: CDK2/A2 Selectivity over CDK1/B1: A (A>10)
  CDK2/CCNA2 Caliper 10xKm Ki: CDK2/A2 Selectivity over CDK9: A (A>10)
CDK2/CyclinA2; Caliper, selectivity over CDK6/D3
  CDK2/CCNA2 Caliper 10xKm Ki: CDK2/A2 Selectivity over CDK6/D3: A (A>10)
CDK1/CyclinB1
  Ki: 1 to 25 nM
CDK9/CyclinT1 [1]
  Ki: ≥ 100 nM
CDK9/CyclinT1 [2]
  Ki: ≥ 100 nM
